Data set [1] concerns the target T1, Poly [ADP-ribose] polymerase 1 (Homo sapiens, UniProt P09874). The settings on record: HeLa.
Description: Ratio of inhibition of HeLa cell proliferation by MMS alone against MMS with PARP inhibitors
Data set [2] addresses T1, Poly [ADP-ribose] polymerase 1. The experiment in a line: Inhibitory activity against PARP1.
Another data set is filed under the species Mus musculus. In words: Intrinsic clearance in mouse hepatic microsomes. The class given is ADME, Liver, Microsome.
The test system of the next data set is CAPAN-1. In words: Activity against BRCA2-deficient cells. Format: functional, Homo sapiens.
A short description of data set [3]: Half life in rat at 10 mg/kg, iv. The settings on record: in vivo. On the set-up: dose 10 mg/kg, route intravenous. The class given is ADME, organism-based.
Data set [4] can be described thus: Aqueous solubility at pH 7.4. Format: physicochemical.
The subject of another data set is RKO. The experiment in a line: Activity against wild type cells. The class given is functional, Homo sapiens.
Data set [5] can be described thus: Volume of distribution in rat at 10 mg/kg, iv. The arrangement: dose 10 mg/kg, route intravenous. Format: ADME, organism-based. The settings on record: in vivo, read-out: Vdss.
A short description of data set [6]: Clearance in rat at 10 mg/kg, iv. The class given is ADME, organism-based. On the set-up: dose 10 mg/kg, route intravenous. The settings on record: in vivo.

Each structure is given as a SMILES string. pIC50: −log10 of the molar value. ≈ marks a conversion by molar mass, not a printed value. A value given as a limit tells only on which side of the number the result lay.

T1 sequence (P09874 whole entry): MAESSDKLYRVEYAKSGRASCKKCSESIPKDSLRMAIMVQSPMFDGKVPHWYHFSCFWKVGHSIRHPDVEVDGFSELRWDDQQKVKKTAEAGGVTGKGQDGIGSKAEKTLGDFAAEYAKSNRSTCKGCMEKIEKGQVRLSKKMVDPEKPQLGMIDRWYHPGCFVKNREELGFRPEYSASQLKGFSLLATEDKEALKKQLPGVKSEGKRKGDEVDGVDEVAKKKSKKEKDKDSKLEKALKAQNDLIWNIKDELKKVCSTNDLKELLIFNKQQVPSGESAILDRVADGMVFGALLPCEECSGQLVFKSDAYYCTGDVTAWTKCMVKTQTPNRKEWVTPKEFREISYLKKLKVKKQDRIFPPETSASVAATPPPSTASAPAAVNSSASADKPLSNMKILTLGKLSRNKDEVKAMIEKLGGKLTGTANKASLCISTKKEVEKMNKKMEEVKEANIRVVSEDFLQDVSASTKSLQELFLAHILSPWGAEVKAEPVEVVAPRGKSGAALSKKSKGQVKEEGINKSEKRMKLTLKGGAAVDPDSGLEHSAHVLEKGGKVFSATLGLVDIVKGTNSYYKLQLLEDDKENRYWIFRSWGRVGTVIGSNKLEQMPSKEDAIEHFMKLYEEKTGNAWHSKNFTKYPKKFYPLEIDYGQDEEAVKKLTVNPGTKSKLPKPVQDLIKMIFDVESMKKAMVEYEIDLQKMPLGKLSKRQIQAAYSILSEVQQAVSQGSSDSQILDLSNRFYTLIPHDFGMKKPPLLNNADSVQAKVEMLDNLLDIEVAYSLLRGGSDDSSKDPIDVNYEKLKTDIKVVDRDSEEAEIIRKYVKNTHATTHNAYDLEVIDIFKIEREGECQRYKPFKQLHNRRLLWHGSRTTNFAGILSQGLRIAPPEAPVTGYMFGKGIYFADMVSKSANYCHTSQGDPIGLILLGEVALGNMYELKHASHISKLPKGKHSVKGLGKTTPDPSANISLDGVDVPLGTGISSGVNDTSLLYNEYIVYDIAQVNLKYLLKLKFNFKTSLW

`CC1CCN(C(=O)C2CCN(C(=O)c3cccc(Cc4nnc(O)c5ccccc45)c3)CC2)CC1` yielded a PF50 in data set [1] of 4.4.

In data set [1], `COc1cc2c(cc1OC)CN(C(=O)C1CCN(C(=O)c3cccc(Cc4nnc(O)c5ccccc45)c3)CC1)CC2` showed a PF50 of 4.1. As to `O=C(c1cccc(Cc2nnc(O)c3ccccc23)c1)N1CCOCC1`, the PF50 in [1] came out at 1.2. Still for that read-out and setting: the same measure for `CCC(C)CN(C)C(=O)C1CCN(C(=O)c2cccc(Cc3nnc(O)c4ccccc34)c2)CC1` (stereo unspecified): 2.6. As for `O=C(NC1CCCC1)C1CCN(C(=O)c2cccc(Cc3nnc(O)c4ccccc34)c2)CC1`, the PF50 in data set [1] was found to be 2.5. In data set [2], this compound gave a pIC50 of 7.82. In the case of `O=C(c1cccc(Cc2nnc(O)c3ccccc23)c1)N1CCCN(CC2CC2)CC1`, the PF50 in data set [1] was 3.1.

In data set [2], `CCCN1CCCN(C(=O)c2cccc(Cc3n[nH]c(=O)c4ccccc34)c2)CC1` showed a pIC50 of 8.00. In data set [1], `COc1ccc(NC(=O)N2CCCN(C(=O)c3cccc(Cc4nnc(O)c5ccccc45)c3)CC2)cc1` displayed a PF50 of 2.2. In data set [2], `Cc1noc(C)c1S(=O)(=O)N1CCCN(C(=O)c2cccc(Cc3n[nH]c(=O)c4ccccc34)c2)CC1` showed a pIC50 of 7.92. As to `CN1CCCN(C(=O)c2cccc(Cc3nnc(O)c4ccccc34)c2)CC1`, the PF50 in [1] was found to be 1.8. The pIC50 in [2] is 7.64.

On to `CN(Cc1ccccc1)C(=O)C1CCN(C(=O)c2cccc(Cc3nnc(O)c4ccccc34)c2)CC1`, for which, in data set [1], the PF50 worked out at 2.1. The compound also gave a pIC50 in data set [2] of 8.05. In the same order, the values of `O=C(c1cccc(Cc2nnc(O)c3ccccc23)c1)N1CCC(C(=O)N2CCCCC2)CC1` are 3.9 and 7.82. The compound `CN1CCCN(C(=O)c2cc(Cc3nnc(O)c4ccccc34)ccc2F)CC1` showed a PF50 in [1] of 5.5. In data set [2], this compound showed a pIC50 of 8.05. In the case of `O=C(c1cc(Cc2nnc(O)c3ccccc23)ccc1F)N1CCCN(CC2CC2)CC1`, the PF50 in data set [1] is 6.7. With `O=C(c1cc(Cc2n[nH]c(=O)c3ccccc23)ccc1F)N1CCCN(CC2CC2)CC1`, the pIC50 in [2] was 8.30. The compound `COc1cc2c(cc1OC)CN(C(=O)C1CCN(C(=O)c3cccc(Cc4n[nH]c(=O)c5ccccc45)c3)CC1)CC2` showed a pIC50 in data set [2] of 7.80. `CCOC(=O)C1CCN(C(=O)c2cccc(Cc3nnc(O)c4ccccc34)c2)CC1` yielded a PF50 in [1] of 2.1. Compound `CC1CCN(C(=O)C2CCN(C(=O)c3cccc(Cc4n[nH]c(=O)c5ccccc45)c3)CC2)CC1` showed a pIC50 in [2] of 8.10.

`CCN1CCCN(C(=O)c2cc(Cc3nnc(O)c4ccccc34)ccc2F)CC1`: in data set [1], the PF50 stood at 6.7.

As for `CCN1CCCN(C(=O)c2cccc(Cc3nnc(O)c4ccccc34)c2)CC1`, the PF50 in [1] was 2.6. In addition, the pIC50 in data set [2] was 7.82. In data set [1], `CCNC(=O)c1cccc(Cc2n[nH]c(=O)c3ccccc23)c1` displayed a PF50 of 2.1. In the data set filed under Mus musculus, the CL was below 1 mL/min/g.

Take `Cc1noc(C)c1S(=O)(=O)N1CCCN(C(=O)c2cccc(Cc3nnc(O)c4ccccc34)c2)CC1`: the PF50 in data set [1] was found to be 2.1. As to `COc1cccc(CCC(=O)N2CCCN(C(=O)c3cccc(Cc4nnc(O)c5ccccc45)c3)CC2)c1`, the PF50 in data set [1] stood at 2.5. The compound also gave a pIC50 in data set [2] of 8.10. As to `O=C(c1cccc(Cc2nnc(O)c3ccccc23)c1)N1CCCNCC1`, in data set [1], the PF50 is 2.4. The same measure, in the same setting: the same measure for `COc1cc(C(=O)N2CCCN(C(=O)c3cccc(Cc4nnc(O)c5ccccc45)c3)CC2)cc(Cl)n1`: 2.5. `CCC(C)CN(C)C(=O)C1CCN(C(=O)c2cccc(Cc3n[nH]c(=O)c4ccccc34)c2)CC1` (stereo unspecified) had a pIC50 in data set [2] of 8.05. Consider `O=C(c1cccc(Cc2nnc(O)c3ccccc23)c1)N1CCCN(S(=O)(=O)c2ccc(-c3ccccc3)cc2)CC1`, for which the PF50 in data set [1] was found to be 3.2. For the compound `O=C(c1cccc(Cc2n[nH]c(=O)c3ccccc23)c1)N1CCNCC1`, the PF50 in data set [1] amounted to 3.7. For `O=C(c1cccc(Cc2nnc(O)c3ccccc23)c1)N1CCCN(C2CCCCC2)CC1`, the PF50 in data set [1] was determined as 6.6. In data set [2], this compound had a pIC50 of 8.22. In [1], `CC(C)CNC(=O)C1CCN(C(=O)c2cccc(Cc3nnc(O)c4ccccc34)c2)CC1` yielded a PF50 of 2. This compound also had a pIC50 in data set [2] of 7.80.

In turn, `CCCN1CCCN(C(=O)c2cc(Cc3nnc(O)c4ccccc34)ccc2F)CC1` yielded a PF50 in data set [1] of 7. The pIC50 in data set [2] was 8.30. On to `O=C(c1cc(Cc2n[nH]c(=O)c3ccccc23)ccc1F)N1CCCNCC1`, for which the PF50 in data set [1] amounted to 12.6. Further, the SF50 was found to be 15 nM with CAPAN-1 and 2 µM with RKO. In data set [2], this compound showed a pIC50 of 8.15. Moreover, the half-life in data set [3] came out at 1 h. In addition, the solubility in data set [4] was determined as 5100 µg/mL (≈ 13.4 mM). Besides, the Vd in data set [5] stood at 2.1 L/kg. Further, in [6], the clearance came out at 54 mL/min/kg.

`COc1cc(C(=O)N2CCCN(C(=O)c3cccc(Cc4n[nH]c(=O)c5ccccc45)c3)CC2)cc(Cl)n1` gave a pIC50 in [2] of 8.05.

As for `O=C(c1cccc(Cc2n[nH]c(=O)c3ccccc23)c1)N1CCOCC1`, the pIC50 in data set [2] was 7.40. Regarding `CCCN1CCCN(C(=O)c2cccc(Cc3nnc(O)c4ccccc34)c2)CC1`, the PF50 in data set [1] turned out to be 2.5. `O=C(c1cccc(Cc2nnc(O)c3ccccc23)c1)N1CCc2ccccc2C1` came in with a PF50 in data set [1] of 3.4. This compound had a pIC50 in [2] of 8.10. In data set [1], `CCC(=O)Nc1cccc(Cc2n[nH]c(=O)c3ccccc23)c1` had a PF50 of 2.3. The compound also displayed a CL in the data set listed under Mus musculus of 12 mL/min/g. In [2], `CCOC(=O)C1CCN(C(=O)c2cccc(Cc3n[nH]c(=O)c4ccccc34)c2)CC1` had a pIC50 of 7.82. On to `O=C(NCCc1cccs1)C1CCN(C(=O)c2cccc(Cc3nnc(O)c4ccccc34)c2)CC1`, for which, in data set [1], the PF50 stood at 2.8. In data set [2], this compound gave a pIC50 of 8.10.

On to `O=C(c1cc(Cc2nnc(O)c3ccccc23)ccc1F)N1CCCN(C2CCCCC2)CC1`, for which, in data set [1], the PF50 worked out at 6.3. `O=C(c1cccc(Cc2n[nH]c(=O)c3ccccc23)c1)N1CCCNCC1` showed a pIC50 in [2] of 8.05. Same read-out and setting: the same measure for `O=C(c1cccc(Cc2n[nH]c(=O)c3ccccc23)c1)N1CCCN(CC2CC2)CC1`: 7.85. As to `CN(C)CCN(C)C(=O)c1cccc(Cc2nnc(O)c3ccccc23)c1`, in data set [1], the PF50 is 2.2. Further, the negative logarithm of the IC50 (pIC50) in data set [2] is 7.34. `O=C(c1cccc(Cc2nnc(O)c3ccccc23)c1)N1CCCN(S(=O)(=O)c2cccc(C(F)(F)F)c2)CC1` gave a PF50 in data set [1] of 2.1.

For the origin of these results see ChEMBL document CHEMBL1138134, “Phthalazinones 2: Optimisation and synthesis of novel potent inhibitors of poly(ADP-ribose)polymerase” (Bioorg Med Chem Lett, 2006).
